From patent US10729684B2, “Alkynyl dihydroquinoline sulfonamide compounds” (AMGEN INC., priority 2015, dated 2020)

Experiments:
human PXR = human PXR (Homo sapiens (Human), UniProt O75469); assay: human PXR @ 2 uM POC
RLM in vitro = details: b278 calls it HLM data in vitro
hNav1.7 = hNav1.7 (Homo sapiens (Human), UniProt Q15858); assay: Nav 1.7 IWQ in vitro assay (IonWorks Quattro population patch-clamp); format: cell-based; details: HEK 293 cells stably transfected with Nav 1.7
Description: Nav 1.7 or Nav 1.5 IWQ In Vitro Assay
HEK 293 Cells stably transfected with either Nav 1.7 or Nav 1.5 were recorded in population patch-clamp mode with the IonWorks® Quattro automated electrophysiology system in accordance with the manufacturer's specifications (Molecular Devices, LLC, Sunnyvale, Calif.). Sodium channel currents were measured in response to a train of depolarizations that induced successively greater inactivation.
Cells were held at −110 mV for three seconds (Nav 1.7) or half a second (Nav 1.5) from a holding voltage of −15 mV, then put through a series of 26 pulses of 150 msec duration to −20 mV at a frequency of 5 Hz. Cells were then left unclamped for a period of 3 to 8 minutes while a single concentration of test compound was added. Cells were then reclamped and put through the same voltage protocol. Current at the end of the 26th pulse to −20 mV was subtracted from the peak current evoked by the 26th pulse to −20 mV to correct for leak current. Percent block was calculated for each concentration in duplicate, and IC50 curves were fitted to percent block as a function of concentration.

human Nav1.7 = human Nav1.7 (Homo sapiens (Human), UniProt Q15858); assay: Nav 1.7 in vitro PX assay (PatchXpress whole cell voltage clamp); format: cell-based; details: HEK 293 cells stably transfected with human Nav1.7, partially inactivated state, read-out: hNav1.7 PX IC50
Chain of human Nav1.7 (Q15858 whole entry): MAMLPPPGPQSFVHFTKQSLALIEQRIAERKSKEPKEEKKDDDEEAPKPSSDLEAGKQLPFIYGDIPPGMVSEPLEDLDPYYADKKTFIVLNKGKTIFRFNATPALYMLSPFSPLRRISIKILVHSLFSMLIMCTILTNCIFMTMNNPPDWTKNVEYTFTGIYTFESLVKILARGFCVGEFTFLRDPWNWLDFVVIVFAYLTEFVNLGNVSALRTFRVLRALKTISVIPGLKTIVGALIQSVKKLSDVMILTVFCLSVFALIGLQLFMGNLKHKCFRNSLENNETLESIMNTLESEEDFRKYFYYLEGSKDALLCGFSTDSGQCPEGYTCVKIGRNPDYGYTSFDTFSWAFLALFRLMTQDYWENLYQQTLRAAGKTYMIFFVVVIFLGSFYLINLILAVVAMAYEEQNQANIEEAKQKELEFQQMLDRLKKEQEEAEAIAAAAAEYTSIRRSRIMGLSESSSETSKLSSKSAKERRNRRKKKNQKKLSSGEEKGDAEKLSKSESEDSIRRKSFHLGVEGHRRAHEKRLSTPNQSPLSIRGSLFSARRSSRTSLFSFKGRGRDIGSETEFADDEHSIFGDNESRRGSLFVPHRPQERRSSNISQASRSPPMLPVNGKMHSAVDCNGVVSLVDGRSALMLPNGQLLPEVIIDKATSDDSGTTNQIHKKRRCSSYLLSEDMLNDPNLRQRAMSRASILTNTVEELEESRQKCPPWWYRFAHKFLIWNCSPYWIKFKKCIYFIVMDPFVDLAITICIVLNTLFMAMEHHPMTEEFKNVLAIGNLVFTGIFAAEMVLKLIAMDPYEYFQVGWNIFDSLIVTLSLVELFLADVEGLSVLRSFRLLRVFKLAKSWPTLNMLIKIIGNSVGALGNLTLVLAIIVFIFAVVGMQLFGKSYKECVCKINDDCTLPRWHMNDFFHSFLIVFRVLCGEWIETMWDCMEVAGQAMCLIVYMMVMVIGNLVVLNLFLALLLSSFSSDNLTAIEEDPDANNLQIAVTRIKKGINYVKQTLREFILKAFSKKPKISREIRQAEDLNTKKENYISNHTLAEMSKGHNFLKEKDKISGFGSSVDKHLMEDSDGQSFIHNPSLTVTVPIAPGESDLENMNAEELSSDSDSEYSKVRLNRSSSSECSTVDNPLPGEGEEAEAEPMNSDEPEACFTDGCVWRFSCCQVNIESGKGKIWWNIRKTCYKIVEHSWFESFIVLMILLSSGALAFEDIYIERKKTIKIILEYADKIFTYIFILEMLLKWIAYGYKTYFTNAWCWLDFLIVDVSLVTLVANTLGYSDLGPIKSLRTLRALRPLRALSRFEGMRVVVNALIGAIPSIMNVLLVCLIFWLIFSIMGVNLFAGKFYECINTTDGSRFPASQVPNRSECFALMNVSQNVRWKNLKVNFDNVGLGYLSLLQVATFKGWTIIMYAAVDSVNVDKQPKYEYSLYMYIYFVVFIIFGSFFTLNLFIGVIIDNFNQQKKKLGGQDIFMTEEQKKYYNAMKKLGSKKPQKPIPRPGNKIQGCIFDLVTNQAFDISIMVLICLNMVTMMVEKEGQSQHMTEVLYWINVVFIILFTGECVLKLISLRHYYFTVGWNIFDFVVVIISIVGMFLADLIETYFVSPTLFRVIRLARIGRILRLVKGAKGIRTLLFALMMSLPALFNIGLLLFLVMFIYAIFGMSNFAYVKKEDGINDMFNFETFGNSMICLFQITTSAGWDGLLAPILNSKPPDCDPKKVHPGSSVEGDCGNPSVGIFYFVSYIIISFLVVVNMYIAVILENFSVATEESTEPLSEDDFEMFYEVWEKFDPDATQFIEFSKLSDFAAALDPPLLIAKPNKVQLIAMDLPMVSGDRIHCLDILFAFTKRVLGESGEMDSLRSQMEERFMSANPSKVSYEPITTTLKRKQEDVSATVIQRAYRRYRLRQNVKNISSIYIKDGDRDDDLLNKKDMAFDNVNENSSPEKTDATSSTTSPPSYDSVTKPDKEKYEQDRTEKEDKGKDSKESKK
Description: Nav 1.7 In Vitro PX Assay
HEK 293 cells stably transfected with human Nav1.7 were recorded in whole cell voltage clamp mode with the PatchXpress automated electrophysiology system (Molecular Devices, LLC, Sunnyvale, Calif.). Compound effects were measured on a partially inactivated state of the sodium channel. Cells were clamped to a holding potential yielding 20 to 50% inactivation. To elicit sodium current, channels were activated by pulsing to −10 mV for 20 msec. This voltage protocol was repeated at a rate of 0.1 Hz throughout the experiment. A single concentration of test compound was applied to cells for a duration of 3 minutes. Peak sodium current was measured at the end of the compound addition period to determine percent inhibition. Three to five cells were tested per concentration, and IC50 curves were fitted to percent inhibition as a function of concentration.

Chain of hNav1.7 (Q15858 whole entry): as above
Chain of human PXR (O75469 whole entry): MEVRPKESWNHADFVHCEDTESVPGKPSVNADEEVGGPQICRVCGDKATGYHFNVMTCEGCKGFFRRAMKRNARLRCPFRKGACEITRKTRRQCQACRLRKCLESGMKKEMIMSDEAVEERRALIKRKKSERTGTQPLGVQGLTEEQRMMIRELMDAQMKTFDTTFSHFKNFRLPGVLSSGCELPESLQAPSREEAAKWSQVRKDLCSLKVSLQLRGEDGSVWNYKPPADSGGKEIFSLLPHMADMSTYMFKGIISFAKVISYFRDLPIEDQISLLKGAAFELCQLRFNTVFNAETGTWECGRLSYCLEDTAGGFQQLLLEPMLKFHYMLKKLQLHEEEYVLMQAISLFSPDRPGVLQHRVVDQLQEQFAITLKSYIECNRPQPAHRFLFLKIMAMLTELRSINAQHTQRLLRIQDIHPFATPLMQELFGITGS

Row | SMILES | human PXR @ 2 uM POCS (human PXR) [%] | RLM in vitro (RLM in vitro) [µL/min/mg] | IC50 (hNav1.7) [nM] | IC50 (human Nav1.7) [nM]
1 | COc1cc(C#CC2CCCC2)c(Cl)cc1-n1c(=O)ccc2cc(S(=O)(=O)Nc3ccon3)ccc21 (atropisomer, axis not shown; (P)) [Example 6, (P)-1-(5-chloro-4-(cyclopentylethynyl)-2-methoxyphenyl)-N-(isoxazol-3-yl)-2-oxo-1,2-dihydroquinoline-6-sulfonamide] | −3.96 | 58 |  | 
2 | COc1cc(C#CC2CCCC(F)(F)C2)c(F)cc1-n1c(=O)ccc2cc(S(=O)(=O)Nc3ccon3)ccc21 (atropisomer, axis not shown; (P)) [Example 7, (P) 1-(4-((3,3-difluorocyclohexyl)ethynyl)-5-fluoro-2-methoxyphenyl)-N-(isoxazol-3-yl)-2-oxo-1,2-dihydroquinoline-6-sulfonamide] | −0.78 | <14.0 |  | 
3 | COc1cc(C#CC2CCCC2)c(F)cc1-n1c(=O)ccc2cc(S(=O)(=O)Nc3cccnn3)ccc21 [Example 9] | 11.80 | 32.2 | 8.95 | 19.3
4 | COc1cc(C#C[C@@H]2C[C@H]2C(F)(F)F)c(F)cc1-n1c(=O)ccc2cc(S(=O)(=O)Nc3ccon3)ccc21 (stereo in doubt) [Example 4B, 1-(5-fluoro-2-methoxy-4-(((1R,2R)-2-(trifluoromethyl)cyclopropyl)ethynyl)phenyl)-N-3-isoxazolyl-2-oxo-1,2-dihydro-6-quinolinesulfonamide] | −3.81 | <14.0 | 5.5 | 
5 | COc1cc(C#CC2CCCC(F)(F)C2)c(F)cc1-n1c(=O)ccc2cc(S(=O)(=O)Nc3ccon3)ccc21 (racemic) [Example 7, (P) 1-(4-((3,3-difluorocyclohexyl)ethynyl)-5-fluoro-2-methoxyphenyl)-N-(isoxazol-3-yl)-2-oxo-1,2-dihydroquinoline-6-sulfonamide] |  |  | 7.8 | 
6 | COc1cc(C#C[C@H]2C[C@@H]2C(F)(F)F)c(F)cc1-n1c(=O)ccc2cc(S(=O)(=O)Nc3ccon3)ccc21 (atropisomer, axis not shown; (P)) [Example 4, (P)-1-(5-fluoro-2-methoxy-4-((2-(trifluoromethyl)cyclopropyl)ethynyl)phenyl)-N-(isoxazol-3-yl)-2-oxo-1,2-dihydroquinoline-6-sulfonamide] | 13.54 | <14.0 |  | 
7 | COc1cc(C#C[C@H]2C[C@@H]2C(F)(F)F)c(F)cc1-n1c(=O)ccc2cc(S(=O)(=O)Nc3ccon3)ccc21 (stereo in doubt) [Example 4, (P)-1-(5-fluoro-2-methoxy-4-((2-(trifluoromethyl)cyclopropyl)ethynyl)phenyl)-N-(isoxazol-3-yl)-2-oxo-1,2-dihydroquinoline-6-sulfonamide] |  |  | 7 | 
8 | COc1cc(C#CC(C)(C)C(F)(F)F)c(F)cc1-n1c(=O)ccc2cc(S(=O)(=O)Nc3ccon3)ccc21 (atropisomer, axis not shown; (P)) [Example 2, (P)-1-(5-fluoro-2-methoxy-4-(4,4,4-trifluoro-3,3-dimethylbut-1-yn-1-yl)phenyl)-N-(isoxazol-3-yl)-2-oxo-1,2-dihydroquinoline-6-sulfonamide] | 1.38 | <14.0 | 1.2 | 
9 | COc1cc(C#CC2(C(F)(F)F)CC2)c(F)cc1-n1c(=O)ccc2cc(S(=O)(=O)Nc3ccon3)ccc21 (atropisomer, axis not shown; (P)) [Example 5, (P)-1-(5-fluoro-2-methoxy-4-((1-(trifluoromethyl)cyclopropyl)ethynyl)phenyl)-N-(isoxazol-3-yl)-2-oxo-1,2-dihydroquinoline-6-sulfonamide] | 1.73 | <14.0 |  | 
10 | COc1cc(C#CC2CCC(F)(F)CC2)c(F)cc1-n1c(=O)ccc2cc(S(=O)(=O)Nc3ccon3)ccc21 (atropisomer, axis not shown; (P)) [Example 1, (P)-1-(4-((4,4-difluorocyclohexyl)ethynyl)-5-fluoro-2-methoxyphenyl)-N-(isoxazol-3-yl)-2-oxo-1,2-dihydroquinoline-6-sulfonamide] | 2.36 | <14.0 | 3.3 | 
11 | COc1cc(C#CC2CCCC2)ccc1-n1c(=O)ccc2cc(S(=O)(=O)Nc3ccon3)ccc21 (atropisomer, axis not shown; (P)) [Example 3, (P)-1-(4-(cyclopentylethynyl)-2-methoxyphenyl)-N-(isoxazol-3-yl)-2-oxo-1,2-dihydroquinoline-6-sulfonamide] | −1.44 | 39 | 7.5 | 49.7
12 | COc1cc(C#C[C@@H]2C[C@@H]2C(F)(F)F)c(F)cc1-n1c(=O)ccc2cc(S(=O)(=O)Nc3ccon3)ccc21 (single isomer, unassigned) [Example 4A] | 23.19 | <14.0 | 6.8 | 
13 | COc1cc(C#CC2CCCC2)c(F)cc1-n1c(=O)ccc2cc(S(=O)(=O)Nc3ccon3)ccc21 (atropisomer, axis not shown; (P)) [Example 10, (P)-1-(4-(cyclopentylethynyl)-5-fluoro-2-methoxyphenyl)-N-3-isoxazolyl-2-oxo-1,2-dihydro-6-quinoline Sulfonamide] | 2.94 | 39.8 |  | 
